Experiments:
[1] = molecular target: T1, BK receptors in human ciliary muscle cells (h-CM) (Homo sapiens, UniProt P30411); assay: Functional assay measuring [Ca2+]i mobilization (FLIPR) in h-CM cells; format: cell-based; settings: class symbols (in μM), read-out: CaM (EC50)
T1 construct: h-CM cells expressing BK receptors were seeded; endogenous in cells; host or cells: human ciliary muscle (h-CM) cells
T1 sequence (P30411 1-391): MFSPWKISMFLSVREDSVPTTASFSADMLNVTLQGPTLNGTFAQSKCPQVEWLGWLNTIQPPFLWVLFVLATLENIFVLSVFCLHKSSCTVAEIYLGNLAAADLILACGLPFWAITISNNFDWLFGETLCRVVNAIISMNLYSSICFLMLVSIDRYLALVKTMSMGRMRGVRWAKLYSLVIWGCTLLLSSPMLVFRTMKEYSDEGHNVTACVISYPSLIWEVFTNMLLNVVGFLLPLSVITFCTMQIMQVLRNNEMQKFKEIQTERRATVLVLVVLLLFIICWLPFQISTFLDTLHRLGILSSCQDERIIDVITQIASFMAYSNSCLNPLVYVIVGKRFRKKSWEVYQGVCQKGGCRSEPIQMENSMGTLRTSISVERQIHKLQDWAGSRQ
Description: On the day of the experiment, media was removed, cells were rinsed and 50 μL of serum-free media added. One vial of FLIPR Calcium Assay Kit dye was reconstituted in 50 mL of a FLIPR buffer consisting of Hank's Balanced Salt Solution (HBSS), 20 mM HEPES, and 2.5 mM probenecid, pH 7.4. Cells were loaded with the calcium-sensitive dye by addition of an equal volume (50 μL) to each well of the 96-well plate and incubated with dye for 1 h at 23° C. […] After this time, the test compound plate and cell plate were placed in a Fluorescence Imaging Plate Reader (FLIPR-Tetra®) instrument (Molecular Devices/MDSPharma, Sunnyvale, Calif.). At the beginning of an experimental run, a signal test was performed to check the basal fluorescence signal from the dye-loaded cells and the uniformity of the signal across the plate. […] An aliquot (25 μL) of the test compound was added to the existing 100 μL dye-loaded cells at a dispensing speed of 50 μL/sec. Intracellular calcium mobilization was measured by monitoring real-time changes in cellular fluorescence upon test compound addition. Fluorescence data were collected in real-time at 1.0 sec intervals for the first 60 seconds and at 6.0 second intervals for an additional 120 seconds. Baseline fluorescence readings were normalized across the plate and background-corrected from negative control wells. […] EC50 values were determined by 4-parameter nonlinear curve fitting of the concentration-response curve. Calibration of the instrument was performed using manufacturer's standard procedures.

[2] = molecular target: T2, recombinant human bradykinin B2 receptor (Homo sapiens, UniProt P30411); assay: [3H]-BK competition radioligand binding to human cloned B2 receptor (CHO cell membranes); settings: 0.2 nM [3H]-bradykinin, CHO membranes, 60 min 23° C.; mean ± SEM or single value; Ki from IC50 by Cheng-Prusoff; read-out: [3H]-BK Binding to Human Cloned B2 Receptor (Ki)
T2 construct: expressed in transfected cells; host or cells: Chinese hamster ovary (CHO) cells, membrane homogenates
T2 sequence (P30411 1-391): T1 sequence (P30411 1-391)
Description: Chinese hamster ovary (CHO) cell membrane homogenates (2.5 μg protein) expressing the recombinant human bradykinin B2 receptor were incubated for 60 min at 23° C. with 0.2 nM [^3H]-bradykinin (95.5 Ci/mmole, PerkinElmer) in the absence or presence of the test compound in a buffer containing 50 mM Tris/HCl (pH 7.4), 0.2 g/L 1-10-phenanthroline and 0.1% BSA. All reagent and test compound additions to the assay plates were made using Biomek 3000 robotic workstations (Beckman Instruments, Fullerton, Calif.). Nonspecific binding was determined in the presence of 1 μM unlabeled bradykinin. Following the incubation, the assay was terminated by rapid filtration under vacuum through glass fiber filters (GF/C, PerkinElmer) presoaked with 0.3% polyethyleneimine and rinsed several times with an ice-cold 50 mM Tris-HCl buffer using a 96-sample cell harvester (Tomtec). The filters were air-dried and the radioactivity counted in a beta-scintillation counter (Topcount, PerkinElmer) using a scintillation cocktail (Microscint 20, PerkinElmer) (Sharif and Whiting, Neurochem. Int. 18: 89-96, 1991). Competitive binding inhibition curves were generated using a 7-point concentration—response of test compound in duplicate. Bradykinin peptide was also tested as an internal control in the assay. The data were analyzed using nonlinear, iterative curve-fitting to obtain the potency and intrinsic activities of the test agents as previously described (Sharif et al. J. Pharmacol. Exp. Ther. 286: 1094-1102, 1998; Sharif et al. Invest Ophthalmol. Vis. Sci. 39:2562-2571, 1998; Kelly et al. J. Pharmacol. Exp. Ther. 304: 238-245, 2003). Determined IC50 values were converted to Ki values using the standard Cheng-Prusoff equation.

[3] = tested on: primary human ciliary muscle cells (h-CM); assay: Total prostaglandin (PG) release from primary h-CM cells (EIA); format: cell-based; settings: Homo sapiens, 1 h, 1 hour at 37° C., class symbols (in μM)
Description: BK agonist compounds of Formula 1 were evaluated for the ability to induce prostaglandin (PG) release from primary human ciliary muscle cells (h-CM). Briefly, h-CM cells were grown to confluence in FNC-coated 24-well culture plates and serum-starved (0.8% FBS) for 24 hours prior to the experiment. Cells were stimulated with a 9-pt concentration-response (0.1 nM-10 μM) of bradykinin or BK agonist for 1 hour at 37° C. with subsequent sample recovery and processing for total PG measurement. Total PG measurement was determined using a total Prostaglandin Screening EIA kit (cat#514012) purchased from Cayman Chemical (Ann Arbor, Mich.). The assay was conducted according to the package insert from the manufacturer.

COc1nc2c(OCc3c(Cl)ccc(N(C)C(=O)CNC(=O)CCN4CCC(NC(C)=O)CC4)c3Cl)cccc2n1Cc1ccccn1 [Compound 8, 3-(4-acetamidopiperidin-1-yl)-N-(2-((2,4-dichloro-3-(((2-methoxy-1-(pyridin-2-ylmethyl)-1H-benzo[d]imidazol-4-yl)oxy)methyl)phenyl)(methyl)amino)-2-oxoethyl)propanamide]
EC50 [1]: < 0.1 µM
Ki [2]: 68 ± 16 nM
EC50 [3]: < 0.1 µM

CCOC(=O)NC1=NCC(CCC(=O)NCC(=O)N(C)c2ccc(Cl)c(COc3cccc4c3nc(OC)n4Cc3ccccn3)c2Cl)CN1 (stereo not drawn) [Compound 9, Ethyl (5-(3-((2-((2,4-dichloro-3-(((2-methoxy-1-(pyridin-2-ylmethyl)-1H-benzo[d]imidazol-4-yl)oxy)methyl)phenyl)(methyl)amino)-2-oxoethyl)amino)-3-oxopropyl)-1,4,5,6-tetrahydropyrimidin-2-yl)carbamate]
EC50 [1]: < 0.1 µM
Ki [2]: 667 ± 101 nM
EC50 [3]: 0.1 to 1 µM

COc1nc2c(OCc3c(Cl)ccc(N(C)C(=O)CNC(=O)CNC4CCC(NC(C)=O)CC4)c3Cl)cccc2n1Cc1ccccn1 (stereo not drawn) [Compound 10, 2-(2-((4-acetamidocyclohexyl)amino)acetamido)-N-(2,4-dichloro-3-(((2-methoxy-1-(pyridin-2-ylmethyl)-1H-benzo[d]imidazol-4-yl)oxy)methyl)phenyl)-N-methylacetamide]
EC50 [1]: < 0.1 µM
Ki [2]: 76 ± 16 nM
EC50 [3]: > 1 µM

CNC(=O)C1CCN(CCC(=O)NCC(=O)N(C)c2ccc(Cl)c(COc3cccc4c3nc(OC)n4Cc3ccccn3)c2Cl)CC1 [Compound 11]
EC50 [1]: < 0.1 µM
Ki [2]: 391 ± 35 nM
EC50 [3]: > 1 µM

CNC(=O)N1CCN(CCCC(=O)NCC(=O)N(C)c2ccc(Cl)c(COc3cccc4c3nc(OC)n4Cc3ccccn3)c2Cl)CC1 [Compound 12]
EC50 [1]: < 0.1 µM
Ki [2]: 261 ± 195 nM
EC50 [3]: > 1 µM

CCc1nc2c(OCc3c(Cl)ccc(N(C)C(=O)CNC(=O)CCN4CCN(C(=O)NC)CC4)c3Cl)cccc2n1Cc1ccccn1 [Compound 19, 4-(3-((2-((2,4-dichloro-3-(((2-ethyl-1-(pyridin-2-ylmethyl)-1H-benzo[d]imidazol-4-yl)oxy)methyl)phenyl)(methyl)amino)-2-oxoethyl)amino)-3-oxopropyl)-N-methylpiperazine-1-carboxamide]
EC50 [1]: < 0.1 µM
Ki [2]: 262 ± 11 nM
EC50 [3]: > 1 µM

CNC(=O)N1CCN(CC(=O)NCC(=O)N(C)c2ccc(Cl)c(COc3cccc4c3nc(OC)n4Cc3ccccn3)c2Cl)CC1 [Compound 20]
EC50 [1]: 0.1 to 1 µM
Ki [2]: 1090 ± 138 nM
EC50 [3]: > 1 µM

COc1nc2c(OCc3c(Cl)ccc(N(C)C(=O)CNC(=O)C4CCN(C5CCNC5)C4)c3Cl)cccc2n1Cc1ccccn1 (stereo not drawn) [Compound 22, N-(2-((2,4-dichloro-3-((2-methoxy-1-(pyridin-2-ylmethyl)-1H-benzo[d]imidazol-4-yloxy)methyl)phenyl)(methyl)amino)-2-oxoethyl)-1,3′-bipyrrolidine-3-carboxamide]
EC50 [1]: < 0.1 µM
Ki [2]: 160 ± 47 nM
EC50 [3]: > 1 µM

CNC(=O)N1CCC(N2CCC(C(=O)NCC(=O)N(C)c3ccc(Cl)c(COc4cccc5c4nc(OC)n5Cc4ccccn4)c3Cl)C2)C1 (stereo not drawn) [Compound 24, N3-(2-((2,4-dichloro-3-((2-methoxy-1-(pyridin-2-ylmethyl)-1H-benzo[d]imidazol-4-yloxy)methyl)phenyl)(methyl)amino)-2-oxoethyl)-N1′-methyl-1,3′-bipyrrolidine-1′,3-dicarboxamide]
EC50 [1]: < 0.1 µM
Ki [2]: 171 ± 97 nM
EC50 [3]: 0.1 to 1 µM

COc1nc2c(OCc3c(Cl)ccc(N(C)C(=O)CNC(=O)CCC4CN=C(NC(C)=O)NC4)c3Cl)cccc2n1Cc1ccccn1 (stereo not drawn) [Compound 25, 3-(2-acetamido-1,4,5,6-tetrahydropyrimidin-5-yl)-N-(2-((2,4-dichloro-3-(((2-methoxy-1-(pyridin-2-ylmethyl)-1H-benzo[d]imidazol-4-yl)oxy)methyl)phenyl)(methyl)amino)-2-oxoethyl)propanamide]
EC50 [1]: < 0.1 µM
Ki [2]: 74 ± 6 nM
EC50 [3]: 0.1 to 1 µM

Source: US8252793B2, “Bradykinin receptor agonists and uses thereof to treat ocular hypertension and glaucoma” (Alcon Research, Ltd., priority 2010, dated 2012)
